Biological target: T1, CCR(9) (Homo sapiens, UniProt P51686)
T1 construct: CCR(9)-expressing cells such as T cell line MOLT-4 cells; host or cells: MOLT-4 cells
T1 sequence (P51686 1-369): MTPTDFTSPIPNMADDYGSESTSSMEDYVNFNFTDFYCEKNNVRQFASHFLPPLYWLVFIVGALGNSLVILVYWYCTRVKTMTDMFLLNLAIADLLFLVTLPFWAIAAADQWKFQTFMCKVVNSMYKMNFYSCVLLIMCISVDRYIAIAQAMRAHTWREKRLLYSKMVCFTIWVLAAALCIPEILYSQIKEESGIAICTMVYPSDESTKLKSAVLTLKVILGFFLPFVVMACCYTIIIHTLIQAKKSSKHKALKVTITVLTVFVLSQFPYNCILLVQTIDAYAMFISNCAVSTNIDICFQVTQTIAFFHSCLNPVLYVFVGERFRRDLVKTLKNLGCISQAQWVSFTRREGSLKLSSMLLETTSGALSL
Assay: calcium mobilization assay (FLIPR, MOLT-4 cells, hTECK)
Type: cell-based
Conditions: read-out: CCR(9) Ca^2+
Experimental: In calcium signaling assays used to determine the ability of a compound to interfere with binding between a chemokine receptor and a known chemokine ligand, chemokine receptor-expressing cells (CCR(9)-expressing cells such as T cell line MOLT-4 cells) are first incubated with a compound of interest, such as a potential chemokine antagonist, at increasing concentrations. The cell number can be from 10^5 to 5×10^6 cells per well in a 96-well microtiter plate. The concentration of the compound being tested may range from 0 to 100 μM. After a period of incubation (which can range from 5 to 60 minutes), the treated cells are placed in a Fluorometric Imaging Plate Reader (FLIPR®) (available from Molecular Devices Corp., Sunnyvale, CA) according to the manufacturer's instruction. The FLIPR® system is well known to those skilled in the art as a standard method of performing assays. The cells are then stimulated with an appropriate amount of the chemokine ligand (TECK for CCR(9)) at 5-100 nM final concentration, and the signal of intracellular calcium increase (also called calcium flux) is recorded. The efficacy of a compound as an inhibitor of binding between the […] and the ligand can be calculated as an IC50 (the concentration needed to cause 50% inhibition in signaling) or IC90 (at 90% inhibition). […]
A cytoplasmic calcium mobilization assay was used to determine the efficacy of potential receptor antagonists at blocking the signals mediated through chemokine receptors, such as CCR(9). This assay was routinely performed using the Fluorescent Imaging Plate Reader (FLIPR, Molecular Devices). […] The chemokine agonist (i.e., hTECK), prepared in HBSS at a 5× concentration of the previously determined EC^50 concentration, was added to each well and resulting changes in the fluorescent intensity, indicative of chemokine receptor-mediated signaling, were recorded on the FLIPR.

Structure (SMILES) | IC50
Cc1cc(NS(=O)(=O)c2ccc(C(C)(C)C)cc2)n(-c2ccc3cccnc3c2)n1 | < 0.1 µM
Cc1cc(NS(=O)(=O)c2ccc(C(C)(C)C)cc2Cl)n(-c2cccc3ncccc23)n1 | < 0.1 µM
CCc1cc(NS(=O)(=O)c2ccc(C(C)(C)C)cc2)n(-c2cccc3ncccc23)n1 | < 0.1 µM

— patent US12611404B2, “Aza-aryl 1H-pyrazol-1-yl benzene sulfonamides” (ChemoCentryx, Inc., priority 2012, dated 2026)
